Reference: patent publication US20120029187A1, “HALOALKYLSULFONANILIDE DERIVATIVE” (Nissan Chemical Industries, Ltd., priority 2009, published 2012)

Key:
Format in all cases: in vivo
barnyardgrass [1] = experiment: Test Example 1: herbicidal effects in preemergence treatment under submerged conditions; conditions: dose 2.52 g/a
Outline: (§1)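 Scoring 0 (<5% mortality) to 5 (≥90%) was done three weeks after preemergence application to the water surface of submerged (4 cm) alluvial soil, doses given as g per are. Weeds were seeded and 2.5-leaf rice transplanted on the treatment day; greenhouse at 25–30 °C.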

bulrush [2] = experiment: as above; conditions: dose 2.52 g/a
Outline: as §1

ducksalad [3] = experiment: as above; conditions: dose 2.52 g/a
Outline: as §1

barnyardgrass [4] = experiment: Test Example 2: herbicidal effects during the vegetation period under submerged conditions; conditions: treatment during the vegetation period under submerged conditions; dose 2.52 g/a
Outline: (§2)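 Barnyardgrass, bulrush and ducksalad were co-sown in alluvial soil flooded to 4 cm and grown in a greenhouse at 25 to 30° C. At the 1- or 2-leaf stage, water-diluted emulsifiable concentrates went onto the water surface at set doses (g/a). Herbicidal effect was scored three weeks later on a graded scale.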

bulrush [5] = experiment: as above; conditions: treatment during the vegetation period under submerged conditions; dose 2.52 g/a
Outline: as §2

ducksalad [6] = experiment: as above; conditions: treatment during the vegetation period under submerged conditions; dose 2.52 g/a
Outline: as §2

Italian ryegrass [7] = experiment: Test Example 3: herbicidal effects in soil treatment; conditions: dose 3.2 g/a
Outline: (§3)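 Seeds were sown in sterilized diluvial soil and covered with about 1.5 cm of soil. Compounds, formulated as emulsifiable concentrates and diluted with water, were sprayed evenly over the soil surface at set doses in g/a. Herbicidal effect was scored on a rating scale three weeks later.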

barnyardgrass [8] = experiment: as above; conditions: dose 3.2 g/a
Outline: as §3

common chickweed [9] = experiment: as above; conditions: dose 3.2 g/a
Outline: as §3

common lambsquater [10] = experiment: as above; conditions: dose 3.2 g/a
Outline: as §3

common ragweed [11] = experiment: as above; conditions: dose 3.2 g/a
Outline: as §3

giant foxtail [12] = experiment: as above; conditions: dose 3.2 g/a
Outline: as §3

large crabgrass [13] = experiment: as above; conditions: dose 3.2 g/a
Outline: as §3

redroot pigweed [14] = experiment: as above; conditions: dose 3.2 g/a
Outline: as §3

velvetleaf [15] = experiment: as above; conditions: dose 3.2 g/a
Outline: as §3

water foxtail [16] = experiment: as above; conditions: dose 3.2 g/a
Outline: as §3

wild oat [17] = experiment: as above; conditions: dose 3.2 g/a
Outline: as §3

Italian ryegrass [18] = experiment: Test Example 4: herbicidal effect in foliage treatment; conditions: dose 3.2 g/a, three weeks after application
Outline: (§4)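 Doses are given in grams per are of applied compound, sprayed as water-diluted emulsifiable concentrate onto foliage of 14-day-old plants grown at 25 to 30° C. Herbicidal activity was assessed visually on a rating scale after three weeks.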

barnyardgrass [19] = experiment: as above; conditions: dose 3.2 g/a, three weeks after application
Outline: as §4

beadstraw = experiment: as above; conditions: dose 3.2 g/a, three weeks after application
Outline: as §4

common chickweed [20] = experiment: as above; conditions: dose 3.2 g/a, three weeks after application
Outline: as §4

common lambsquater [21] = experiment: as above; conditions: dose 3.2 g/a, three weeks after application
Outline: as §4

common ragweed [22] = experiment: as above; conditions: dose 3.2 g/a, three weeks after application
Outline: as §4

giant foxtail [23] = experiment: as above; conditions: dose 3.2 g/a, three weeks after application
Outline: as §4

large crabgrass [24] = experiment: as above; conditions: dose 3.2 g/a, three weeks after application
Outline: as §4

posumbu knotweed = experiment: as above; conditions: dose 3.2 g/a, three weeks after application
Outline: as §4

redroot pigweed [25] = experiment: as above; conditions: dose 3.2 g/a, three weeks after application
Outline: as §4

velvetleaf [26] = experiment: as above; conditions: dose 3.2 g/a, three weeks after application
Outline: as §4

water foxtail [27] = experiment: as above; conditions: dose 3.2 g/a, three weeks after application
Outline: as §4

wild oat [28] = experiment: as above; conditions: dose 3.2 g/a, three weeks after application
Outline: as §4

CC1CN(Cc2ccccc2N(C(=O)OCCCl)S(=O)(=O)C(F)(F)F)C(=O)CO1 (stereo not drawn) [Compound I-8]
A: barnyardgrass, herbicidal effect (evaluation scale 0-5) (barnyardgrass [1]): 5 (mortality of 90% or above (nearly complete death))
B: bulrush, herbicidal effect (evaluation scale 0-5) (bulrush [2]): 5 (mortality of 90% or above (nearly complete death))
C: ducksalad, herbicidal effect (evaluation scale 0-5) (ducksalad [3]): 5 (mortality of 90% or above (nearly complete death))
A: barnyardgrass, herbicidal effect (evaluation scale 0-5) (barnyardgrass [4]): 5 (mortality of 90% or above (nearly complete death))
B: bulrush, herbicidal effect (evaluation scale 0-5) (bulrush [5]): 5 (mortality of 90% or above (nearly complete death))
C: ducksalad, herbicidal effect (evaluation scale 0-5) (ducksalad [6]): 5 (mortality of 90% or above (nearly complete death))
H: Italian ryegrass, herbicidal effect (evaluation scale 0-5) (Italian ryegrass [7]): 5 (mortality of 90% or above (nearly complete death))
A: barnyardgrass, herbicidal effect (evaluation scale 0-5) (barnyardgrass [8]): 5 (mortality of 90% or above (nearly complete death))
N: common chickweed, herbicidal effect (evaluation scale 0-5) (common chickweed [9]): 5 (mortality of 90% or above (nearly complete death))
L: common lambsquater, herbicidal effect (evaluation scale 0-5) (common lambsquater [10]): 3 (mortality of at least 40% and less than 70%)
J: common ragweed, herbicidal effect (evaluation scale 0-5) (common ragweed [11]): 5 (mortality of 90% or above (nearly complete death))
E: giant foxtail, herbicidal effect (evaluation scale 0-5) (giant foxtail [12]): 4 (mortality of at least 70% and less than 90%)
D: large crabgrass, herbicidal effect (evaluation scale 0-5) (large crabgrass [13]): 5 (mortality of 90% or above (nearly complete death))
K: redroot pigweed, herbicidal effect (evaluation scale 0-5) (redroot pigweed [14]): 5 (mortality of 90% or above (nearly complete death))
I: velvetleaf, herbicidal effect (evaluation scale 0-5) (velvetleaf [15]): 5 (mortality of 90% or above (nearly complete death))
G: water foxtail, herbicidal effect (evaluation scale 0-5) (water foxtail [16]): 5 (mortality of 90% or above (nearly complete death))
F: wild oat, herbicidal effect (evaluation scale 0-5) (wild oat [17]): 1 (mortality of at least 5% and less than 20%)
H: Italian ryegrass, herbicidal effect (Italian ryegrass [18]): 4 (mortality of at least 70% and less than 90%)
A: barnyardgrass, herbicidal effect (barnyardgrass [19]): 5 (mortality of 90% or above (nearly complete death))
O: beadstraw, herbicidal effect (beadstraw): 4 (mortality of at least 70% and less than 90%)
N: common chickweed, herbicidal effect (common chickweed [20]): 3 (mortality of at least 40% and less than 70%)
L: common lambsquater, herbicidal effect (common lambsquater [21]): 2 (mortality of at least 20% and less than 40%)
J: common ragweed, herbicidal effect (common ragweed [22]): 5 (mortality of 90% or above (nearly complete death))
E: giant foxtail, herbicidal effect (giant foxtail [23]): 4 (mortality of at least 70% and less than 90%)
D: large crabgrass, herbicidal effect (large crabgrass [24]): 4 (mortality of at least 70% and less than 90%)
M: posumbu knotweed, herbicidal effect (posumbu knotweed): 5 (mortality of 90% or above (nearly complete death))
K: redroot pigweed, herbicidal effect (redroot pigweed [25]): 4 (mortality of at least 70% and less than 90%)
I: velvetleaf, herbicidal effect (velvetleaf [26]): 5 (mortality of 90% or above (nearly complete death))
G: water foxtail, herbicidal effect (water foxtail [27]): 5 (mortality of 90% or above (nearly complete death))
F: wild oat, herbicidal effect (wild oat [28]): 1 (mortality of at least 5% and less than 20%)
